Values after ≈ are worked out from the molar mass of the structure shown.
Assays:
[1] = tested on: Candida albicans TIMM 1623; experiment: Antifungal activity test (in vivo), mouse systemic infection model; details: for T/C (%): survival time of administration group / control group x100
Description: With respect to compounds I-1, I-3 and I-6 obtained in Examples 1, 3 and 6 respectively, therapeutic effects at the time of subcutaneous administration of compounds I-1, I-3 and I-6 on a mouse systemic infection model by Candida albicans TIMM 1623 were tested.
The test was carried out using 5 animals for each of the drug administration groups and Negative control group (sterile physiological saline administration group).
Each of compounds I-1, I-3 and I-6 was dissolved in and diluted with dimethyl sulfoxide (DMSO; Wako Pure Chemical Industries, Ltd.) and then prepared into a predetermined concentration by diluting with sterile physiological saline.
As the control experiment, Fluconazole (FLCZ, Flanos intravenous drip solution 100 mg; TOYAMA CHEMICAL CO, LTD.) diluted to a predetermined concentration with sterile physiological saline was used.
On the next day of the receipt of animals, body weights of mice were measured and CP (crude protein) was intraperitoneally administered at a dose of 200 mg/kg based on the individual body weight, and then they were reared for 3 days.
Cells of C. albicans TIMM 1623 cultured overnight at 35° C. on SDA (Sabouraud dextrose agar; Eiken Chemical Co., Ltd.) plate medium were suspended in sterile physiological saline and used as the Stock solution, and a portion thereof was diluted with 10% formalin (Wako Pure Chemical Industries, Ltd.). The number of cells in the diluted liquid was counted under a biological microscope using a hemocytometer, and then an inoculum was prepared by diluting the stock solution with sterile physiological saline (about 1.5×10^5 cells/ml). By inoculating 0.2 ml of this cell suspension through caudal vein, infection was induced. In this connection, the number of viable cells in the inoculum was verified by spreading the cell suspension optionally diluted with sterile physiological saline on an SDA plate medium and then culturing at 35° C. Each of the substances to be tested, control substance or sterile physiological saline was subcutaneously administered after 2 hours of the infection and for 3 days starting on the next day of infection once a day, a total of 4 times. After measuring individual body weight on the next day of infection, CP was again administered intraperitoneally at a dose of 100 mg/kg. The number of survived mice was observed and recorded for 14 days starting on the next day of infection.
The results were shown in Table 3 below and FIGS. 1A to 1D. In the table, the administration dose of the compounds of the present invention and the comparative compound represents a mg amount per 1 kg of a mouse weight (mg/kg).
Significant deference was tested, by 5% for both sides of the levels of significance, in accordance with the Kaplan-Meier method Logrank test (comparison of multiple groups), on the survival time distribution of each of the substances to be tested and control substance administration groups and sterile physiological saline administration group. SAS release 8.2 (SAS Institute Japan) was used in the Kaplan-Meier method Logrank test. (T/C(%)=[survival time of administration group (integrated value)/survival time of control group (integrated value)]×100)

[2] = tested on: Microsporum canis ATCC 36299; experiment: Antifungal activity test (in vitro), MIC; format: cell-based; details: ATCC36299
Description: Minimum inhibitory concentration (MIC) of each of the compounds obtained in Examples 1 to 12 was measured for respective fungi at MOS Pharm Service, by the methods described in Antimicrobial Agents and Chemotherapy, vol. 3, pp. 40-48 (1973), Antimicrobial Agents and Chemotherapy, vol. 33, pp. 215-222 (1989) and Antimicrobial Agents and Chemotherapy, vol. 38, pp. 2362-2368 (1994). The measuring conditions are shown in the following. In this case, Voriconazol was used as a comparative compound. Microsporum canis ATCC 36299; Cultured at 30° C. for 2 days using fluid Sabouraud medium, and this was used as a cell suspension. Each of the compounds of the invention was adjusted to a concentration of 1% by weight using dimethyl sulfoxide (DMSO) and a medium similar to the respective medium used in the above-mentioned fungal culture, having a final concentration of from 0.001 to 100 μg/ml, was prepared. Each of the inoculation cell suspensions prepared by the above-mentioned methods was inoculated onto this agar plate. […] In this connection, Voriconazol was used as the comparative compound C-1.

[3] = tested on: Aspergillus fumigatus ATCC 1028; experiment: Antifungal activity test (in vitro), MIC; format: cell-based; details: ATCC1028
Description: Minimum inhibitory concentration (MIC) of each of the compounds obtained in Examples 1 to 12 was measured for respective fungi at MOS Pharm Service, by the methods described in Antimicrobial Agents and Chemotherapy, vol. 3, pp. 40-48 (1973), Antimicrobial Agents and Chemotherapy, vol. 33, pp. 215-222 (1989) and Antimicrobial Agents and Chemotherapy, vol. 38, pp. 2362-2368 (1994). The measuring conditions are shown in the following. In this case, Voriconazol was used as a comparative compound.
Aspergillus fumigatus ATCC 1028; Cultured at 28° C. for 2 days using potato dextrose broth, and this was used as a cell suspension.
Each of the compounds of the invention was adjusted to a concentration of 1% by weight using dimethyl sulfoxide (DMSO) and a medium similar to the respective medium used in the above-mentioned fungal culture, having a final concentration of from 0.001 to 100 μg/ml, was prepared. Each of the inoculation cell suspensions prepared by the above-mentioned methods was inoculated onto this agar plate. […] In this connection, Voriconazol was used as the comparative compound C-1.

Compound `C[C@@H](N1CC=C(c2ccccn2)CC1)[C@](O)(Cn1cncn1)c1ccc(F)cc1F` [I-3, (2R,3R)-2-(2,4-difluorophenyl)-3-(3′,6′-dihydro-2,4′-bipyridin-1′(2′H)-yl)-1-(1,2,4-triazol-1-yl)butan-2-ol] has a survival rate ([1]; 0.1 mg/kg s.c., day 0) of 100, a survival rate ([1]; 0.1 mg/kg s.c., day 1) of 100 and a survival rate ([1]; 0.1 mg/kg s.c., day 2) of 100. For the same compound, the survival rate ([1]; 0.1 mg/kg s.c., day 3) was 60, the survival rate ([1]; 0.1 mg/kg s.c., day 4) was 60 and the survival rate ([1]; 0.1 mg/kg s.c., day 5) was 60. It also gave a survival rate ([1]; 0.1 mg/kg s.c., day 6) of 60, a survival rate ([1]; 0.1 mg/kg s.c., day 7) of 40 and a survival rate ([1]; 0.1 mg/kg s.c., day 8) of 40. It also gave a survival rate ([1]; 0.1 mg/kg s.c., day 9) of 40, a survival rate ([1]; 0.1 mg/kg s.c., day 10) of 40 and a survival rate ([1]; 0.1 mg/kg s.c., day 11) of 40. For the same compound, the survival rate ([1]; 0.1 mg/kg s.c., day 12) was 40, the survival rate ([1]; 0.1 mg/kg s.c., day 13) was 40 and the survival rate ([1]; 0.1 mg/kg s.c., day 14) was 40. The “T/C (%)” value ([1]; 0.1 mg/kg s.c.) was 139%, the survival rate ([1]; 1 mg/kg s.c., day 0) was 100 and the survival rate ([1]; 1 mg/kg s.c., day 1) was 100. The survival rate ([1]; 1 mg/kg s.c., day 2) was 100, the survival rate ([1]; 1 mg/kg s.c., day 3) was 80 and the survival rate ([1]; 1 mg/kg s.c., day 4) was 80. For the same compound, the survival rate ([1]; 1 mg/kg s.c., day 5) was 60, the survival rate ([1]; 1 mg/kg s.c., day 6) was 40 and the survival rate ([1]; 1 mg/kg s.c., day 7) was 40. It also gave a survival rate ([1]; 1 mg/kg s.c., day 8) of 40, a survival rate ([1]; 1 mg/kg s.c., day 9) of 40 and a survival rate ([1]; 1 mg/kg s.c., day 10) of 40. It also gave a survival rate ([1]; 1 mg/kg s.c., day 11) of 40, a survival rate ([1]; 1 mg/kg s.c., day 12) of 40 and a survival rate ([1]; 1 mg/kg s.c., day 13) of 40. The survival rate ([1]; 1 mg/kg s.c., day 14) was 40, the “T/C (%)” value ([1]; 1 mg/kg s.c.) was 142% and the survival rate ([1]; 10 mg/kg s.c., day 0) was 100. For the same compound, the survival rate ([1]; 10 mg/kg s.c., day 1) was 100, the survival rate ([1]; 10 mg/kg s.c., day 2) was 100 and the survival rate ([1]; 10 mg/kg s.c., day 3) was 60. It also gave a survival rate ([1]; 10 mg/kg s.c., day 4) of 60, a survival rate ([1]; 10 mg/kg s.c., day 5) of 60 and a survival rate ([1]; 10 mg/kg s.c., day 6) of 60. It also gave a survival rate ([1]; 10 mg/kg s.c., day 7) of 40, a survival rate ([1]; 10 mg/kg s.c., day 8) of 20 and a survival rate ([1]; 10 mg/kg s.c., day 9) of 20. It also gave a survival rate ([1]; 10 mg/kg s.c., day 10) of 20, a survival rate ([1]; 10 mg/kg s.c., day 11) of 20 and a survival rate ([1]; 10 mg/kg s.c., day 12) of 20. For the same compound, the survival rate ([1]; 10 mg/kg s.c., day 13) was 20, the survival rate ([1]; 10 mg/kg s.c., day 14) was 20 and the “T/C (%)” value ([1]; 10 mg/kg s.c.) was 116%. The MIC [2] was 0.03 µg/mL (≈ 0.0729 µM) and the MIC [3] was 1 µg/mL (≈ 2.43 µM).

— patent US7973056B2, “Triazole derivative or salt thereof” (Fujifilm Finechemicals Co., Ltd, priority 2008, dated 2011)
